The values below come from publication PMC10012260 (ACS Infectious Diseases, 2023).

Each structure is given as a SMILES string. Values joined by “and” are separate entries in the source; they are usually repeats but may differ in a detail not shown here. Equal values may be shown once. Read-outs that look alike come from different tables or passages of the source.

Series [1] deals with NDV-HN of three NDV strains (two NDV La Sota and the velogenic strain APMV-1/chicken/Egypt/13VIR-5009-2/2013) (Newcastle disease virus, UniProt P35743). Kind of series: biochemical.
NDV-HN of three NDV strains (two NDV La Sota and the velogenic strain APMV-1/chicken/Egypt/13VIR-5009-2/2013), sequence (P35743 whole entry, looked up): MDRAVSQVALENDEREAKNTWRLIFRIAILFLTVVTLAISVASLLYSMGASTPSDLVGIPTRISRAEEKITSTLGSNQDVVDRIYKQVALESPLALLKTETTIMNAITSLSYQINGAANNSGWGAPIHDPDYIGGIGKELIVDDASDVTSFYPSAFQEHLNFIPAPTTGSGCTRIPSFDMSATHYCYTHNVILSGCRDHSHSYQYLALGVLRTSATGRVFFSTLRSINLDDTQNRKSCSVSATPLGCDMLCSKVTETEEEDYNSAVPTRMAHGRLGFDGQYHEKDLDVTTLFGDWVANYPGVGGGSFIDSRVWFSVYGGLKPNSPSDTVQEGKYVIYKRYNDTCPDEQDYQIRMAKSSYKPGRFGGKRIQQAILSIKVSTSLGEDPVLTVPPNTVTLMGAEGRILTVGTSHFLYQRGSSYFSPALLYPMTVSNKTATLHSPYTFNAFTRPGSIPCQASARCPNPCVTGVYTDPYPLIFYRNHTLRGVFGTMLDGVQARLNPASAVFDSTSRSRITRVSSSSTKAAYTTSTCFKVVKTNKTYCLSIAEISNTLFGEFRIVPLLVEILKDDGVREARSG
For series [2], the system named is NDV La Sota. As to the kind of experiment: microbe, parasite or virus in culture. The conditions noted are these: for IC50: avian paramyxovirus 1, Vero, 48 h, read-out: plaque reduction assay (IC50, μM). It is filed as cell-based, Newcastle disease virus.
For series [3], the system named is NDV La Sota. Kind of series: microbe, parasite or virus in culture. It is filed as cell-based, Newcastle disease virus. The conditions noted are these: avian paramyxovirus 1, Vero, 24 h, read-out: viral yield reduction assay 24 h (IC50, μM).
Series [4] has as its system NDV La Sota. As to the kind of experiment: microbe, parasite or virus in culture. The class given is cell-based, Newcastle disease virus. The following applies: avian paramyxovirus 1, Vero, read-out: Inhibition of viral binding (IC50, μM).
Series [5] deals with NDV La Sota. As to the kind of experiment: microbe, parasite or virus in culture. It is filed as cell-based, Newcastle disease virus. The following applies: avian paramyxovirus 1, Vero, 48 h, read-out: Inhibition of viral release (IC50, μM).
A further series in a line: in vitro. The conditions noted are these: African green monkey.
A further series deals with hPIV3-HN. The following applies: read-out: IC50 hPIV3-HN; cited from earlier work.
The target in a further series is La Sota Clone 30 NDV-HN (Newcastle disease virus, UniProt P35743). It is filed as biochemical.
La Sota Clone 30 NDV-HN, sequence (P35743 whole entry, looked up): as above

For the molecule `CC(=O)N[C@H]1[C@H]([C@H](O)[C@H](O)CO)OC(C(=O)O)=C[C@@H]1O` [Compound 1, N-acetyl-2,3-dehydro-2-deoxyneuraminic acid, reference compound], the IC50 in series [1] is 6.2 to 14 µM; in the series with NDV La Sota [2] it was 26 ± 13 µM; with NDV La Sota [3], 1.6 ± 0.6 µM; in the series on NDV La Sota [4] it was more than 100 µM; in the series with NDV La Sota [5], 15 ± 8 µM. In addition, in the series on NDV La Sota [2], the “selectivity index (CC50/IC50)” value is more than 96. The same molecule showed a CC50 in the series “in vitro” of more than 2500 µM.
For `CC(=O)N[C@H]1[C@H]([C@H](O)[C@H](O)CO)OC(C(=O)O)=C[C@@H]1N=C(N)N` [Compound 2, Zanamivir, reference compound], the IC50 in series [1] was 23 to 70 µM; in the series on NDV La Sota [2] it was 30 ± 7 µM; in the series on NDV La Sota [4], more than 100 µM; in the series with NDV La Sota [5] it was 29 ± 10 µM. For the same molecule, the “selectivity index (CC50/IC50)” value in the series on NDV La Sota [2] is listed as more than 83. Further, the CC50 in the series “in vitro” is more than 2500 µM.
Turning to `CC(C)C(=O)N[C@H]1[C@H]([C@H](O)[C@H](O)CO)OC(C(=O)O)=C[C@@H]1N=[N+]=[N-]` [Compound 4], the IC50 in the series on hPIV3-HN was 20 µM and 21.5 µM.
Consider `O=C(O)C1=C[C@H](O)[C@@H](NC(=O)C(F)(F)F)[C@H]([C@H](O)[C@H](O)CO)O1` [Compound 5, N-trifluoroacetyl-2,3-dehydro-2-deoxyneuraminic acid, reference compound], for which the IC50 was 6.2 to 14 µM in series [1]; 3.5 ± 0.9 µM with NDV La Sota [2]; 0.37 ± 0.08 µM in the series on NDV La Sota [3]; more than 100 µM with NDV La Sota [4]; 7.7 ± 2.9 µM with NDV La Sota [5]. Further, in the series on NDV La Sota [2], the “selectivity index (CC50/IC50)” value is recorded as more than 714. This molecule also had a CC50 in the series “in vitro” of more than 2500 µM.
With `[N-]=[N+]=N[C@H]1C=C(C(=O)O)O[C@@H]([C@H](O)[C@H](O)CO)[C@@H]1NC(=O)C(F)(F)F` [Compound 9], the IC50 is approximately 0.03 µM in series [1]; 0.17 ± 0.06 µM in the series with NDV La Sota [2]; 0.04 ± 0.01 µM in the series on NDV La Sota [3]; 23 µM in the series with NDV La Sota [4]; 0.47 µM with NDV La Sota [5]. The same molecule had a CC50 in “in vitro” of more than 2500 µM.
In the case of `[N-]=[N+]=N[C@H]1C=C(C(=O)O)O[C@@H]([C@H](O)[C@H](O)CO)[C@@H]1NC(=O)C(F)(F)C(F)(F)C(F)(F)F` [Compound 10], the IC50 in series [1] is approximately 0.03 µM; in the series with NDV La Sota [2], 0.06 ± 0.02 µM; in the series on NDV La Sota [3] it was 0.04 ± 0.01 µM; in the series on NDV La Sota [4], 4 µM; in the series on NDV La Sota [5] it was 0.09 µM. Besides, in the series on NDV La Sota [2], the “selectivity index (CC50/IC50)” value was >41,667. This molecule also gave a CC50 in “in vitro” of more than 2500 µM.
Turning to `O=C(O)C1=C[C@H](NS(=O)(=O)c2ccccc2)[C@@H](NC(=O)C(F)(F)F)[C@H]([C@H](O)[C@H](O)CO)O1` [Compound 19, 2,6-Anhydro-4-(phenylsulfonamido)-3,4,5-trideoxy-5-(2,2,2-trifluoroacetamido)-D-glycero-D-galacto-non-2-enoic Acid], at La Sota Clone 30 NDV-HN, the “increase in potency versus methylsulfonamido derivative 14” value was 10 fold.
As for `Cc1ccc(C(=O)N[C@H]2C=C(C(=O)O)O[C@@H]([C@H](O)[C@H](O)CO)[C@@H]2NC(=O)C(F)(F)F)cc1` [Compound 23, 2,6-Anhydro-4-(4-methylbenzamido)-3,4,5-trideoxy-5-(2,2,2-trifluoroacetamido)-D-glycero-D-galacto-non-2-enoic Acid], the “increase in inhibitory activity versus p-toluenesulfonamido 12” value on La Sota Clone 30 NDV-HN was found to be 3 fold. Besides, at La Sota Clone 30 NDV-HN, the “times more active than FANA 5” value turned out to be 40 times. In addition, the IC50 was not above 0.2 µM in series [1]; 0.79 ± 0.57 µM in the series with NDV La Sota [2]; 0.05 ± 0.02 µM in the series with NDV La Sota [3]; 24 µM in the series with NDV La Sota [4]; 0.13 µM in the series with NDV La Sota [5]. Moreover, in the series “in vitro”, the CC50 is more than 2500 µM.
`O=C(O)C1=C[C@H](NC(=O)C(F)(F)F)[C@@H](NC(=O)C(F)(F)F)[C@H]([C@H](O)[C@H](O)CO)O1` [Compound 24, 2,6-Anhydro-3,4,5-trideoxy-4,5-di-(2,2,2-trifluoroacetamido)-D-glycero-D-galacto-non-2-enoic Acid]: the IC50 is not above 0.2 µM in series [1]; 0.08 ± 0.01 µM with NDV La Sota [2]; 0.03 ± 0.01 µM in the series on NDV La Sota [3]; 15 µM with NDV La Sota [4]; 0.17 µM in the series with NDV La Sota [5]. Further, the CC50 in “in vitro” is more than 2500 µM.
